Measured values taken from US20020076736A1, “Methods of affecting laminin 5 processing” (priority 2000, published 2002).
“Also recorded” adds a separate entry of the source.

Legend:
[1] = target: MMP-9 (Homo sapiens, UniProt P14780); assay: Inhibition of MMP-9 activity; format: biochemical
[2] = target: T1, MMP-2 (Homo sapiens, UniProt P08253); assay: Inhibition of MMP-2 activity; format: biochemical
T1 sequence (P08253 110-660): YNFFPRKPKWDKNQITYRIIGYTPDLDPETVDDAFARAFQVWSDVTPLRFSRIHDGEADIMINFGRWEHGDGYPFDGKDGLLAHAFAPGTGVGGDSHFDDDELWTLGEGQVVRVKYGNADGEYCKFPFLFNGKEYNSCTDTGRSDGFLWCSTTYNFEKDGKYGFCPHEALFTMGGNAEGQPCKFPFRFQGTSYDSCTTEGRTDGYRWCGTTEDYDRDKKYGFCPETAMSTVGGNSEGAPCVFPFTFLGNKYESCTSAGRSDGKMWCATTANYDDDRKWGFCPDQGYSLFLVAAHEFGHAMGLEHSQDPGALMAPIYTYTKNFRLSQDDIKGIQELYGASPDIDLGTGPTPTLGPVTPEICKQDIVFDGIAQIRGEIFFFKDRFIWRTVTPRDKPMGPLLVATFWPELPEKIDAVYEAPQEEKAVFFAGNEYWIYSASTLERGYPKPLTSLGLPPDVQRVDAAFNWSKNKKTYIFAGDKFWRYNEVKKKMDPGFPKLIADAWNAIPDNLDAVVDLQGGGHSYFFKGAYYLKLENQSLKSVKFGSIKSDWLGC

[3] = test system: keratinocytes; assay: Keratinocyte migration, Boyden chambers; format: cell-based; details: for inhibition of keratinocyte migration, dose dependence: Boyden chamber and scratch assays
Procedure: Compounds 1 and 2 were used to examine the functional effects of processing by BMP-1 related proteins on keratinocyte migration. […] Keratinocytes were analyzed for migration in Boyden chambers in the presence of increasing amounts of the inhibitors. […] (Koivunen et al. (1999) Nature Biotechnology 17:768-774.)

[4] = target: MT1-MMP (Homo sapiens, UniProt P50281); assay: Inhibition of MT1-MMP activity; format: biochemical
[5] = test system: squamous carcinoma cells; assay: Migration of squamous carcinoma cells (general statement); format: cell-based
[6] = target: T2, BMP-1 (Homo sapiens, UniProt P13497); assay: Inhibition of BMP-1 activity, enzyme-based assays of collagen proteolysis; format: biochemical
T2 sequence (P13497 121-730 isoform P13497-2 limits assumed): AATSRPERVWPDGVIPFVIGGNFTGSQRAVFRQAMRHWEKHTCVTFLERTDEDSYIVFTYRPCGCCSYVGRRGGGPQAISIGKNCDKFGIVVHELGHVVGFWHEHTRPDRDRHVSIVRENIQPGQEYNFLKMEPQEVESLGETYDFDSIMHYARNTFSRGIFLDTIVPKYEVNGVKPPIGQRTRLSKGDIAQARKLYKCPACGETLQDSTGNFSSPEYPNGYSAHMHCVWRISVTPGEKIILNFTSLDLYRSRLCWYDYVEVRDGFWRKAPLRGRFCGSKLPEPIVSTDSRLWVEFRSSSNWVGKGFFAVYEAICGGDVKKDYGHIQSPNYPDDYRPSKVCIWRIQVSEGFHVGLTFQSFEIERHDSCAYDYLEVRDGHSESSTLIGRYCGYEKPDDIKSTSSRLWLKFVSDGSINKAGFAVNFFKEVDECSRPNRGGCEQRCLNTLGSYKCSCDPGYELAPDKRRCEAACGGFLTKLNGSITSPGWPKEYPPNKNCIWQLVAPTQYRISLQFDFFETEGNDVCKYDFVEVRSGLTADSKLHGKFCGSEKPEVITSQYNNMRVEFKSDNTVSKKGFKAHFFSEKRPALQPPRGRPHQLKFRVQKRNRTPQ

[7] = target: T3, MMP-1 (Homo sapiens, UniProt P03956); assay: Inhibition of MMP-1 activity; format: biochemical
T3 sequence (P03956 100-469): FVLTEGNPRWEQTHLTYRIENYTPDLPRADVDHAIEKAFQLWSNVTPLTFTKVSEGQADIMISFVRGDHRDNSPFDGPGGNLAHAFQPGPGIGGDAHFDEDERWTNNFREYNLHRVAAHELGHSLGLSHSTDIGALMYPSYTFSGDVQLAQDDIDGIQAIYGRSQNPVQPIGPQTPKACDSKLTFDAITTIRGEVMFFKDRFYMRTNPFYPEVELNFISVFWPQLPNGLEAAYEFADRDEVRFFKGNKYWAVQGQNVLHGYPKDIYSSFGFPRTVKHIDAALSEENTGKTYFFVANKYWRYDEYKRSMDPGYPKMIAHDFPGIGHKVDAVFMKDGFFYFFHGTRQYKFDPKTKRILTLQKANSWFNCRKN

[8] = test system: cultured cells; assay: Toxicity to cultured cells; format: cell-based; details: for toxicity to cultured cells at 100 times inhibitory levels: 100 times the concentration which inhibited BMP-1 activity; for toxic effect on cells: cell culture
[9] = test system: type IV collagen
[10] = target: unprocessed human laminin 5 (α3 chain of 200 kDa, β3 chain of 140 kDa, γ2 chain of 155 kDa) (UniProt Q16787)
[11] = test system: collagen XVII

Chain of MMP-9 (P14780 94-707, species assumed): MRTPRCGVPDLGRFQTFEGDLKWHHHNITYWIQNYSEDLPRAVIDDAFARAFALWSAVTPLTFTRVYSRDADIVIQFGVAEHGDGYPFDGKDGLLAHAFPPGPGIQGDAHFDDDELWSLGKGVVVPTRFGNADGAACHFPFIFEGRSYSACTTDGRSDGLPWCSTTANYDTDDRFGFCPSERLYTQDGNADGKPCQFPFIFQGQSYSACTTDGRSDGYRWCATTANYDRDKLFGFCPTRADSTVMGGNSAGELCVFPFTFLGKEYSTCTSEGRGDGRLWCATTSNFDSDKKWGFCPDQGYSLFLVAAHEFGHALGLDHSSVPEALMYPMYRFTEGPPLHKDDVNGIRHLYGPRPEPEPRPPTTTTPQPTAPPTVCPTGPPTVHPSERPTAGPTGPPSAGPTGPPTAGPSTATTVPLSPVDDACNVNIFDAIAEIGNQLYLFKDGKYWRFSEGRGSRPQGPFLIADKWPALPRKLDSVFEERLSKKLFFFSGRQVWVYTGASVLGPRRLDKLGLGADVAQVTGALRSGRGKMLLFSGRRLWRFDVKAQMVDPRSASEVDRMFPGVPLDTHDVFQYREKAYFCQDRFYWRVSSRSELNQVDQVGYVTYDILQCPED
Chain of unprocessed human laminin 5 (α3 chain of 200 kDa, β3 chain of 140 kDa, γ2 chain of 155 kDa) (Q16787 whole entry, looked up): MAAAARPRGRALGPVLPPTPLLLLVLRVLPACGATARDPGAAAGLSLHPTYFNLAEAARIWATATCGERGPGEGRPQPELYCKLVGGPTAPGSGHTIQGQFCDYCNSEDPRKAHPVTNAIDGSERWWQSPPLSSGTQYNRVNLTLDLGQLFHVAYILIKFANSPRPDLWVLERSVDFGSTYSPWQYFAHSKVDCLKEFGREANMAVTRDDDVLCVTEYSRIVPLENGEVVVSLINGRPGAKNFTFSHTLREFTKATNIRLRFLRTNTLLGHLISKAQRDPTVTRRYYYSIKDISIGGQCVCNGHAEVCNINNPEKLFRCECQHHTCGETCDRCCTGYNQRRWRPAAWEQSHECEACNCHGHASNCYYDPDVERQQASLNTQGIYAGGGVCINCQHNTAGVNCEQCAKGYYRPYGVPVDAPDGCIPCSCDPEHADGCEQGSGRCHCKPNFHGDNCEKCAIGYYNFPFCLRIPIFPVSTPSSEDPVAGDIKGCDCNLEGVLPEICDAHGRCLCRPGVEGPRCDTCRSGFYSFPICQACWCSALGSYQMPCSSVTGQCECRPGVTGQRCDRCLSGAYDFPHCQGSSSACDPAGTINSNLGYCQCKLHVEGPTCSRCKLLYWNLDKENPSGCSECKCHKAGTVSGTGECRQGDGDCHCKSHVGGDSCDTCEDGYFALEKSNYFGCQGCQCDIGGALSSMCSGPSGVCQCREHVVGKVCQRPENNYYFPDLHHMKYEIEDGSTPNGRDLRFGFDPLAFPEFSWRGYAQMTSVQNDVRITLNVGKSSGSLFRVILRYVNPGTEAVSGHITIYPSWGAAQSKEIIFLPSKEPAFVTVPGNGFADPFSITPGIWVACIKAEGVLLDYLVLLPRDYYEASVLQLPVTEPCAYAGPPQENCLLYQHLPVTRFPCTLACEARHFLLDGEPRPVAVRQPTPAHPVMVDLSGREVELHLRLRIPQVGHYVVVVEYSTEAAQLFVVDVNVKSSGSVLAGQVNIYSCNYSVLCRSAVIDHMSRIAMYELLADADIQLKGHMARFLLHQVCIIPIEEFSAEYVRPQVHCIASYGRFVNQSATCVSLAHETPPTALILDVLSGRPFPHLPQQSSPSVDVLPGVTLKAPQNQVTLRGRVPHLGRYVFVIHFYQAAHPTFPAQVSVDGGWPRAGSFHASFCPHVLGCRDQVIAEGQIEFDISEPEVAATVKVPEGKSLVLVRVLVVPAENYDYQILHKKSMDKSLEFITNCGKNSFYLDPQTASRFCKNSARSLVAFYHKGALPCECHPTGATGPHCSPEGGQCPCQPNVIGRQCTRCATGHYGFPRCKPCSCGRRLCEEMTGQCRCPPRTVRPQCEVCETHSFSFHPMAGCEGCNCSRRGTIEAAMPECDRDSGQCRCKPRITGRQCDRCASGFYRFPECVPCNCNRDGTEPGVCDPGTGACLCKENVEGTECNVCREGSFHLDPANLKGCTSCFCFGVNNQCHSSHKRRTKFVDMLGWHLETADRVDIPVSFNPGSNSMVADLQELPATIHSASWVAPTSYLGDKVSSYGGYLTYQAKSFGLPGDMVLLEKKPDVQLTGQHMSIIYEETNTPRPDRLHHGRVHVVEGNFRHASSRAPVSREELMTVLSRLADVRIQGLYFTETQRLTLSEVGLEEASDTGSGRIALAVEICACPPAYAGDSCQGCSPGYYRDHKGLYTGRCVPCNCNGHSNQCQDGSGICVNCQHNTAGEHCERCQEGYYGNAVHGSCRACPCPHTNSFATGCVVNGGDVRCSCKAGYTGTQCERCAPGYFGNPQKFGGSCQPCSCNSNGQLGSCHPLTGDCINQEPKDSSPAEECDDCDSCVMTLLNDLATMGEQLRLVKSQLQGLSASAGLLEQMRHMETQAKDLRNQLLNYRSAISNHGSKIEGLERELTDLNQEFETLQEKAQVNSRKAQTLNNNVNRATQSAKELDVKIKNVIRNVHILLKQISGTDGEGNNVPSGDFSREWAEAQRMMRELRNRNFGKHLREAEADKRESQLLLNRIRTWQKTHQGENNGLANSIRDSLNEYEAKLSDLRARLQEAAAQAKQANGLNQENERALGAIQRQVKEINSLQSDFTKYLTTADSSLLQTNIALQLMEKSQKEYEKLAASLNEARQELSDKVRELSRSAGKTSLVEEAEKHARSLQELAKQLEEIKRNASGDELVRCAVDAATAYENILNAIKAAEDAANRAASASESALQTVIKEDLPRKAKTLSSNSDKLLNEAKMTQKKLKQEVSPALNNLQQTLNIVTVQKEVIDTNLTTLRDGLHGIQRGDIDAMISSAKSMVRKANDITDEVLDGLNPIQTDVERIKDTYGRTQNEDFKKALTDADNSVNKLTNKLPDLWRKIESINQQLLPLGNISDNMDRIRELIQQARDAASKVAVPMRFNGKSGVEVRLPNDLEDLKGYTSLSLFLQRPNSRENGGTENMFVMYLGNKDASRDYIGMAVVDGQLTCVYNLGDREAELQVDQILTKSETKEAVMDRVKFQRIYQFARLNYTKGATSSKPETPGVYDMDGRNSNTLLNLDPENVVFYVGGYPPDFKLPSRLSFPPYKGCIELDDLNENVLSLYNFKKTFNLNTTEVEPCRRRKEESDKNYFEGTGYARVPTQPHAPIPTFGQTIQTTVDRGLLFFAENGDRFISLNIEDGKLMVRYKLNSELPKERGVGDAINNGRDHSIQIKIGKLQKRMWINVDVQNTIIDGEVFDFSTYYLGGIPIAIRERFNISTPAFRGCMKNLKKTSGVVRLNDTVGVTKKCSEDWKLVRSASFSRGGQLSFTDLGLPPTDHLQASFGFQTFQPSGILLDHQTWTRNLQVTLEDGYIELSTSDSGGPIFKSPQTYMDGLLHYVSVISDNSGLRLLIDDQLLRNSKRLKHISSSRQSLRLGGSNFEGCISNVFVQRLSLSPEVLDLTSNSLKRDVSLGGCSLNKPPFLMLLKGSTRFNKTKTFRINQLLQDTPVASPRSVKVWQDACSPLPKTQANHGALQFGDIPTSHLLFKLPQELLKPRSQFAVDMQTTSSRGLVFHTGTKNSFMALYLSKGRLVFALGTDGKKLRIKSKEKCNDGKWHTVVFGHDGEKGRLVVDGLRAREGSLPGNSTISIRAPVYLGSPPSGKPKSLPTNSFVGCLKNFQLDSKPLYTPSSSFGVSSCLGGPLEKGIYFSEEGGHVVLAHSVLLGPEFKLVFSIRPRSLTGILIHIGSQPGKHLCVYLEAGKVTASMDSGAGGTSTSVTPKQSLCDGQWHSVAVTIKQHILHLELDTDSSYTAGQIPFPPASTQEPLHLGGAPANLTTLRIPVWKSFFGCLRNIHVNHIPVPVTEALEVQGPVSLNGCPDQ

Compound	inhibition of activity of MMP-9 [1]	inhibition of activity of MMP-2 [2]	inhibition of keratinocyte migration [3]	inhibition of keratinocyte migration, dose dependence [3]	dose required to achieve nearly complete inhibition of migration ([3]; Boyden chambers) [µM]	inhibition of migration of keratinocytes, dose dependence ([3]; Boyden chambers, 0, 10, 23 μM)	inhibition of activity of MT1-MMP [4]	inhibition of migration of squamous carcinoma cells [5]	inhibition of BMP-1 activity [6]	inhibition of activity of MMP-1 [7]	toxicity to cultured cells at 100 times inhibitory levels [8]	toxic effect on cells [8]	potency of BMP-1 inhibition relative to the other compounds [6]	digestion of type IV collagen (positive control, data not shown) [9]	processing of collagen IV [9]	cleavage of human laminin 5 [10]	digestion of laminin 5 (100 ng/ml MMP-2, 37° C., 16 hours, western blot) [10]	processing of collagen XVII [11]
O=C(CCCC1C(=O)N(C23CC4CC(CC(C4)C2)C3)C(=O)N1Cc1ccccn1)NO (stereo not shown) [Compound 1]	no inhibition	no inhibition	potently inhibit	inhibition of KC migration in a dose-dependent manner	23	dose dependent	no inhibition	potently inhibit	showed inhibition of BMP-1 activity	no inhibition	nontoxic	nontoxic; also recorded: no toxic effect on cells						
COc1ccc(CCN(CCC(=O)NO)S(=O)(=O)c2ccc(C(N)=NO)cc2)cc1 [Compound 3]	no inhibition	no inhibition	potently inhibit	inhibition of KC migration in a dose-dependent manner			no inhibition	potently inhibit	showed inhibition of BMP-1 activity	no inhibition	nontoxic	low cytotoxicity; also recorded: no toxic effect on cells	slightly less potent					
MMP-2														MMP-2 completely digested an equimolar quantity of type IV collagen under the same conditions	it readily processed collagen XVII and collagen IV	it failed to cleave human laminin 5, even at six times the enzyme-to-substrate ratio used for BMP-1 cleavage studies	no digestion of laminin 5 was seen with 100 ng/ml MMP-2 (over three times the amount of BMP-1 on a molar basis)	it readily processed collagen XVII and collagen IV
